From US9446093B2, “Injectable aqueous ophthalmic composition and method of use therefor” (Alcon Research Ltd., priority 2009, dated 2016)

Test: pKa, charge and solubility of the amine groups of the polymer

With Poly-L-lysine the “pKa value of the amine groups” value was “approximately 10.5”.
